From patent US10166225B2, “Method for treating osteoporosis” (Exelixis, Inc., priority 2011, dated 2019)

What was measured:
[1] = postmenopausal women, one subcutaneous injection, dose-dependent, for as long as 6 months; cited from earlier work
[2] = women, subcutaneous denosumab 60 mg every 6 months; one month after injection; cited from earlier work
human osteoclasts = experiment: Osteoclast activity assay (resorption index CTX/TRACP 5b); format: cell-based; details: reference inhibitor, 1_M
Experimental: In the second part, the culture medium of human osteoclasts was replaced by new medium at day 7, and the formed mature osteoclasts were cultured for an additional 3 days, allowing them to resorb bone. Compound 1 was added into the culture medium at day 7. […] C-terminal cross-linked telopeptides of type I collagen (CTX) were measured in the culture medium collected at day 10 to quantitate bone resorption during days 7-10. […] was measured at day 7 to quantitate osteoclast number before Compound 1 was added. The CTX values were divided by the […] values, resulting as a resorption index that indicates mean osteoclast activity. […] The objective of this study was to investigate the effects of Compound 1 selected by the Sponsor on differentiation and activity of human osteoclasts and mouse osteoblasts in vitro. The effects on osteoclasts were studied using a model where bone marrow-derived human osteoclast precursor cells are cultured on bovine bone slices for 7 days in conditions favouring osteoclast differentiation, and allowed to differentiate into bone-resorbing osteoclasts. After completion of osteoclast differentiation at day 7, the culture medium was removed and new culture medium favouring osteoclast activity was added into the wells. The mature osteoclasts were then cultured for an additional 3 days, allowing them to resorb bone. In the osteoclast differentiation assay, the test compounds and a reference inhibitor osteoprotegerin (OPG) were added into cultures at day 0. In the osteoclast activity assay, the test compounds and a reference inhibitor E64 were added into cultures at day 7. Seven concentrations in 8 replicates were tested in both assays. Tartrate-resistant acid phosphatase 5b activity ([…]) was measured from the culture medium collected at day 7 as an index of the number of osteoclasts formed in each well during the differentiation period. C-terminal cross-linked telopeptides of type I collagen (CTX) was measured from the culture medium collected at day 10 to quantitate bone resorption during days 7-10. A human osteoclast culture system was developed for use in this study where CD34+ osteoclast precursor cells derived from human bone marrow (Poietics® Human Osteoclast Precursors, Lonza, Walkersville, USA) are cultured on bovine bone slices in the presence of appropriate growth factors, including M-CSF and RANK-ligand ([…] et al. 2009). The cells are first allowed to differentiate into mature bone-resorbing osteoclasts, and the formed osteoclasts are then allowed to resorb bone. The test and reference compounds are added into the cell cultures at the beginning of the differentiation and/or the resorption period, and their effects on the differentiation and/or resorbing activity of osteoclasts are determined. Secreted […] is determined from the culture medium after the differentiation period using a commercially available method (BoneTRAPÒ, IDS Ltd, Boldon, UK). Secreted […] describes accurately the number of osteoclasts formed in each well during the differentiation period. CTX is determined from the culture medium after the resorption period using a commercially available method (CrossLapsÒ for cultures, IDS Ltd, Boldon, UK). CTX describes accurately the amount of bone collagen degradation products released into the culture medium in each well during the resorption period. […] In this study, human bone marrow-derived CD34+ stem cells (10000 cells/well) were suspended in culture medium and allowed to attach to bovine bone slices in 96-well tissue culture plates. The culture medium (containing 10% FBS, OCP BulletKit® Lonza, Walkersville, USA) was supplemented with appropriate amounts of important growth factors favoring osteoclast differentiation and activity, including M-CSF (33 ng/ml, OCP BulletKit® Lonza, Walkersville, USA) and RANK-ligand (66 ng/ml, OCP BulletKit® Lonza, Walkersville, USA) in 200 μl of medium. The cells were incubated in a CO2 incubator in humidified atmosphere of 95% air and 5% carbon dioxide at 37° C. […]

[3] = test system: rat ovariectomy (OVX) model; experiment: Short-term effects on body weight, uterine weight and bone turnover markers in the rat ovariectomy (OVX) model; format: in vivo, rat (Sprague-Dawley); set-up: key to Body weight, change during the first week / Body weight, change during the in-life phase / Relative uterine weight at day 14 / Serum PINP levels, change during the in-life phase / Serum OC levels, change during the in-life phase / Serum CTX levels, change during the in-life phase / Serum TRACP 5b activity, change during the in-life phase: An upwards arrow (↑) indicates a statistically significant increase; a downwards arrow (↓) a statistically significant decrease; One asterisk (*) indicates a statistical significance with a p-value<0.05; two asterisks (**) with a p-value<0.01; three asterisks (***) with a p-value<0.001; NS=Non-significant
Text: The objective of this study was to investigate short-term effects of Compound 1 on biochemical serum markers of bone metabolism in a prevention study in a rat ovariectomy (OVX) model for postmenopausal osteoporosis. 17β-estradiol (E2) was used as a reference compound. The following five experimental groups were included in the study:
Each group contained eight female rats (Sprague-Dawley) that were three months of age at the beginning of in-life phase of the study. Before the start of the in-life phase, animals were weighed, their blood samples were harvested, and animals were randomized to study groups by stratification according to body weight and serum levels of procollagen type I N-terminal propeptide (PINP). At the beginning of the in-life phase, animals were weighed and operated. Treatment was started one day after the operations and continued once a day for two weeks. Sterile water was used as vehicle in groups 1 and 2. Body weight was determined after one week of treatment and treatment doses were adjusted accordingly. After two weeks of treatment, animals were weighed, their blood samples were harvested, animals were terminated, and their relative uterine weight was determined. For analyzing short-term effects of treatments, levels of four bone metabolism biomarkers were determined in serum samples harvested before the start and at the end of the in-life phase. These biomarkers included PINP as a marker of bone formation, N-terminal mid-fragment of osteocalcin (OC) as a general marker of bone turnover, C terminal cross-linked telopeptides of type I collagen (CTX) as a marker of bone resorption, and tartrate-resistant acid phosphatase isoform 5b (TRACP 5b) as a marker of osteoclast number. Serum levels at day −7 were used as baseline levels and serum levels at day 14 as levels affected by operations and treatments.
Each group contained eight female rats (Sprague-Dawley) that were three months of age at the beginning of in-life phase of the study. Animals were randomized to study groups by stratification according to their body weight and serum levels of procollagen type I N-terminal propeptide (PINP) measured one week before the start of the in-life phase (at day −7). At the beginning of the in-life phase (at day 0), animals were weighed, animals in groups 2-5 were ovariectomized, and animals in group 1 SHAM-operated. Treatment was started one day after the operations and continued once a day for two weeks (up to day 13). Sterile water was used as vehicle in groups 1 and 2. Body weight was determined at the beginning of the in-life phase (at day 0), one week after the start of the inlife phase (at day 7), and at the end of the in-life phase (at day 14). Treatment doses were adjusted according to the latest body weight obtained. After two weeks of treatment (at day 14), animals were weighed, their blood samples were harvested, animals were terminated, and their relative uterine weight was determined. For analyzing short-term effects of treatments, levels of four bone metabolism biomarkers were measured in serum samples harvested before the start of the in-life phase (at day −7) and at the end of the in-life phase (at day 14). These biochemical serum markers included PINP, N-terminal mid-fragment of osteocalcin (OC), C-terminal cross-linked telopeptides of type I collagen (CTX), and tartrate-resistant acid phosphatase isoform 5b (TRACP 5b). Serum levels obtained at day −7 were used as baseline levels and serum levels obtained at day 14 as levels affected by surgical operations and treatments.
Biochemical markers of bone metabolism are useful tools for monitoring osteoporosis therapy and for prediction of fracture risk and long-term changes in bone mineral density (Cremers et al. 2008). […]

[4] = test system: KS483 mouse osteoprogenitor cells; experiment: Osteoblast activity assay (PINP at day 11, calcium deposition at day 13); format: cell-based; details: reference stimulator, 10 nM
Experimental: The effects on osteoblasts were studied using KS483 mouse osteoprogenitor cells that can be induced to differentiate into bone-forming osteoblasts. […] In the osteoblast differentiation assay, the cells were cultured for 8 days, after which the formed mature osteoblasts were quantitated by measuring the amount of intracellular alkaline phosphatase (ALP) activity. […] A culture system was established that can be used as an in vitro model for studying the effects of anabolic and estrogen-like compounds on osteoblast differentiation and activity. In this culture system mouse KS483 cells first proliferate and then differentiate into osteoblasts capable of forming mineralized bone nodules in the presence of ascorbic acid and ß-glycerophosphate (Fagerlund et al. 2009). The test and reference compounds are added into the cell cultures concomitantly with the medium change, and their effects on the differentiation and activity of osteoblasts are determined. Cellular ALP, a marker of osteoblast differentiation, is determined from the cell lysates as described earlier (Lowry et al. 1954). Secreted PINP, a marker of organic bone matrix formation, is determined from the culture medium using a commercially available method (Rat/Mouse PINP EIA, IDS Ltd, Boldon, UK). Calcium deposition, an index of inorganic bone matrix formation, is measured using a commercially available calcium assay (Roche Diagnostics). Mouse KS483 cells were cultured in T-75 tissue culture flasks in aMEM supplemented with 10% charcoal-stripped fetal bovine serum until 80-90% confluence. The cells were incubated in a CO2 incubator in humidified atmosphere of 95% air and 5% carbon dioxide at 37° C. After reaching 80-90% confluence, subcultures were prepared. Cells were removed from the flasks with trypsin treatment and counted. For induction of the maturation of osteoblasts and bone formation, the immature osteoblastic cells were plated in type I collagen-coated 96-well plates. The cells were cultured for 13 days with a supplement of ascorbic acid (50 μg/ml) and ß-glycerophosphate (5 mM), and half of the media was changed every 3-4 days. The test compound and control substance (E2) were added in the beginning of the culture period and when the medium was changed. Secreted PINP was measured from the culture medium at day 11 as a marker of organic bone matrix formation. The cultures were stopped at day 13 by removing the culture media from the wells and adding hydrochloric acid. Calcium deposited into the formed bone matrix was quantitated by using VICTOR2™ Multilabel Counter (PerkinElmer, Waltham, Mass., USA).

[5] = test system: KS483 mouse osteoprogenitor cells; experiment: Osteoblast differentiation assay (cellular ALP activity at day 8); format: cell-based; details: reference stimulator, 10 nM
Experimental: In the third part, KS483 mouse osteoprogenitor cells were cultured for 8 days, after which the formed mature osteoblasts were quantitated by measuring the amount of intracellular alkaline phosphatase (ALP) activity. […] The effects on osteoblasts were studied using KS483 mouse osteoprogenitor cells that can be induced to differentiate into bone-forming osteoblasts. […] In the osteoblast differentiation assay, the cells were cultured for 8 days, after which the formed mature osteoblasts were quantitated by measuring the amount of intracellular alkaline phosphatase (ALP) activity. […] A culture system was established that can be used as an in vitro model for studying the effects of anabolic and estrogen-like compounds on osteoblast differentiation and activity. In this culture system mouse KS483 cells first proliferate and then differentiate into osteoblasts capable of forming mineralized bone nodules in the presence of ascorbic acid and ß-glycerophosphate (Fagerlund et al. 2009). The test and reference compounds are added into the cell cultures concomitantly with the medium change, and their effects on the differentiation and activity of osteoblasts are determined. Cellular ALP, a marker of osteoblast differentiation, is determined from the cell lysates as described earlier (Lowry et al. 1954). Secreted PINP, a marker of organic bone matrix formation, is determined from the culture medium using a commercially available method (Rat/Mouse PINP EIA, IDS Ltd, Boldon, UK). Calcium deposition, an index of inorganic bone matrix formation, is measured using a commercially available calcium assay (Roche Diagnostics). Mouse KS483 cells were cultured in T-75 tissue culture flasks in aMEM supplemented with 10% charcoal-stripped fetal bovine serum until 80-90% confluence. The cells were incubated in a CO2 incubator in humidified atmosphere of 95% air and 5% carbon dioxide at 37° C. After reaching 80-90% confluence, subcultures were prepared. Cells were removed from the flasks with trypsin treatment and counted. For induction of the maturation of osteoblasts and bone formation, the immature osteoblastic cells were plated in type I collagen-coated 96-well plates. The cells were cultured for 8 days with a supplement of ascorbic acid ([…]), and half of the media was changed every 3-4 days. The test compound and control substance (E2) were added in the beginning of the culture period and when the medium was changed. The cultures were stopped at day 8 by removing the culture media from the wells, and cell lysates were prepared. Cellular ALP activity and total protein content (Protein Assay, Bio-Rad Laboratories Inc, CA, USA) were quantitated by using VICTOR2™ Multilabel Counter (PerkinElmer, Waltham, Mass., USA).

[6] = OVX rats vs OVX vehicle, E2 4 μg/kg/d s.c.
[7] = OVX rats, 17β-estradiol 4 μg/kg/d s.c., two weeks

For “denosumab: subcutaneous denosumab (60 mg) in the FREEDOM osteoporosis trial”, the “suppression of urinary NTx” value [1] is listed as “up to 81%” and the “serum CTx levels” value [2] is listed as “decreased to levels below the premenopausal reference interval”.
For `CC(C)C[C@H](NC(=O)[C@H]1O[C@@H]1C(=O)O)C(=O)NCCCCN=C(N)N` [Compound E64, reference compound], the “effect on osteoclast activity” value (human osteoclasts) was “inhibited significantly”.
For `C[C@]12CC[C@@H]3c4ccc(O)cc4CC[C@H]3[C@@H]1CC[C@@H]2O` [Compound E2, 17β-estradiol, reference compound], the “Body weight, change during the first week” value [3, 6] was “↓ **”, the “Body weight, change during the in-life phase” value [3, 6] was “↓ **” and the “Relative uterine weight at day 14” value [3, 6] was “↑ **”. For the same compound, the “Serum CTX levels, change during the in-life phase” value [3, 6] was “↓ ***”, the “Serum OC levels, change during the in-life phase” value [3, 6] was “↓ ***” and the “Serum PINP levels, change during the in-life phase” value [3, 6] was “↓ **”. For the same compound, the “Serum TRACP 5b activity, change during the in-life phase” value [3, 6] was “NS”, the “OVX-induced gain in body weight” value [3, 7] was “prevented” and the “OVX-induced increase in serum CTX levels” value [3, 7] was “prevented”. The “OVX-induced increase in serum OC levels” value [3, 7] was “prevented”, the “OVX-induced increase in serum PINP levels” value [3, 7] was “prevented” and the “OVX-induced reduction in relative uterine weight” value [3, 7] was “prevented”. For the same compound, the “OVX-induced reduction in serum TRACP 5b activity” value [3, 7] was “did not affect”, the “effect on osteoblast activity” value [4] was “stimulated significantly” and the “effect on osteoblast differentiation” value [5] was “stimulated significantly”.
